Results taken from patent publication US20250057844A1, “METHODS OF TREATING NEOPLASTIC DISEASES” (SILLAJEN, INC., priority 2021, published 2025).
Like-named read-outs stand apart in the source and are kept apart here.

What was measured:
[1] = Maximum tolerated dose (MTD) in mice; details: mouse, in vivo
[2] = Second PK study: daily oral dose for 5 days, two formulations; type: in vivo, female Swiss Albino mice; details: for AUC(0-t): AUC0-24 h
Description: In a second study female Swiss Albino mice were administered daily oral dose of 5, 7.5, or 10 mg/kg of the compound of formula (I) for 5 days. […] PK samples were collected on day 5 for groups 1 to 6. Formulation 1 consisted of DMSO, cremophor EL, and 5% mannitol in water (10/10/80; v/v/v). Formulation 2 consisted of ethanol, PEG 400, and citric acid 20 mM (10/10/80; v/v/v). […] In each of the three studies blood was collected via the sephanous vein into K2-EDTA tubes kept on ice until centrifugation at 4° C. Plasma was stored at ap-proximately-80° C. […] PK parameters were calculated using Phoenix® WinNonLin 6.4. PK analysis was based on sparse sampling.

[3] = target: T1, tumor-derived TTK (Homo sapiens, UniProt P33981); test: Tumor TTK target occupancy in MDA-MB-231 xenograft-bearing mice; type: in vivo
T1 construct: TTK target occupancy was also measured in tumors derived from MDA-MB-231 xenograft-bearing mice; from tissue; host or cells: MDA-MB-231 xenograft tumours grown in mice
T1 sequence (P33981 1-857): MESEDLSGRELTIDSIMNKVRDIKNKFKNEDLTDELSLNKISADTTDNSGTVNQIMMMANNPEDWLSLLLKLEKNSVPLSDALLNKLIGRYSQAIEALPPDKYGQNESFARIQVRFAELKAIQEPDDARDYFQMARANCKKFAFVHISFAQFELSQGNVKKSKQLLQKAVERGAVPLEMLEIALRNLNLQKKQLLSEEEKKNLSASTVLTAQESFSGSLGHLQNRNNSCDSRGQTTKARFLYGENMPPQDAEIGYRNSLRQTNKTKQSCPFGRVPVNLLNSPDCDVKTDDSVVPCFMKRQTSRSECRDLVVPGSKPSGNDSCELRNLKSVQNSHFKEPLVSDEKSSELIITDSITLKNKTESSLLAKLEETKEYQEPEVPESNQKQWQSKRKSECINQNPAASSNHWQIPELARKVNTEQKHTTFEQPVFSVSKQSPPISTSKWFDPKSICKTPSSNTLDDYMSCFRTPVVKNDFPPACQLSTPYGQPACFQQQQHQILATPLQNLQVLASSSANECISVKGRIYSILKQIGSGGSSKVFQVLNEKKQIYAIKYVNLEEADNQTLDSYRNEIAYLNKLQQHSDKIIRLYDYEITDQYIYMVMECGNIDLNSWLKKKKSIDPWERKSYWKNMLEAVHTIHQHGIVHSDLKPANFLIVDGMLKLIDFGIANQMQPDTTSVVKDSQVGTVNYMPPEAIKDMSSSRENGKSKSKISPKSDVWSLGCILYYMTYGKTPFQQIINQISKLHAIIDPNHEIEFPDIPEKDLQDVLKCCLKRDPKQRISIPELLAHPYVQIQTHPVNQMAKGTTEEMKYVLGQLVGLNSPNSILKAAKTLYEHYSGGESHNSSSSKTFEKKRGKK
Description: Prolonged TTK target occupancy was also measured in tumors derived from MDA-MB-231 xenograft-bearing mice treated with intermittent i.v. dosing regimen of compound of formula (I). […]

[4] = day 5, daily oral 5 mg/kg, Formulation 1, female mice
[5] = day 5, daily oral 5 mg/kg, Formulation 2, female mice
[6] = day 5, daily oral 7.5 mg/kg, Formulation 1, female mice
[7] = day 5, daily oral 7.5 mg/kg, Formulation 2, female mice
[8] = day 5, daily oral 10 mg/kg, Formulation 1, female mice
[9] = day 5, daily oral 10 mg/kg, Formulation 2, female mice
[10] = female, Swiss Albino, mouse, plasma, po, 5 mg/kg, day 5, daily oral 5 mg/kg, Formulation 1, female mice
[11] = female, Swiss Albino, mouse, plasma, po, 5 mg/kg, day 5, daily oral 5 mg/kg, Formulation 2, female mice
[12] = female, Swiss Albino, mouse, plasma, po, 7.5 mg/kg, day 5, daily oral 7.5 mg/kg, Formulation 1, female mice
[13] = female, Swiss Albino, mouse, plasma, po, 7.5 mg/kg, day 5, daily oral 7.5 mg/kg, Formulation 2, female mice
[14] = female, Swiss Albino, mouse, plasma, po, 10 mg/kg, day 5, daily oral 10 mg/kg, Formulation 1, female mice
[15] = female, Swiss Albino, mouse, plasma, po, 10 mg/kg, day 5, daily oral 10 mg/kg, Formulation 2, female mice

With `COc1cc(N2CCNCC2)ccc1Nc1ncc2c(n1)-n1ccc(C(=O)Nc3c(C)cccc3C)c1CC2` [compound of formula (I)] the MTD ([1]; iv, 2QW) was 12.5 mg/kg, the MTD ([1]; iv, QW) was 25 mg/kg and the MTD ([1]; po, orally daily) was 7.5 mg/kg. It also gave a Tmax ([2]; Swiss Albino, mouse, plasma, day 5, daily oral 5 mg/kg, Formulation 1, female mice, read-out: Tmax) of 2 h, a Tmax ([2]; Swiss Albino, mouse, plasma, day 5, daily oral 7.5 mg/kg, Formulation 1, female mice, read-out: Tmax) of 4 h and a Tmax ([2]; Swiss Albino, mouse, plasma, day 5, daily oral 10 mg/kg, Formulation 1, female mice, read-out: Tmax) of 4 h. The “% extrapolated” value [2, 4] was 8.33%, the AUCinf/Dose [2, 4] was 81.6 ng·h/mL/mg/kg and the AUClast/Dose [2, 4] was 74.8 (h*ng/mL)/(mg/kg). The Cmax/Dose [2, 4] was 5.16 (ng/mL)/(mg/kg), the “% extrapolated” value [2, 5] was 1.53% and the AUCinf/Dose [2, 5] was 116 ng·h/mL/mg/kg. For the same molecule, the AUClast/Dose [2, 5] was 114 (h*ng/mL)/(mg/kg), the Cmax/Dose [2, 5] was 9.48 (ng/mL)/(mg/kg) and the “% extrapolated” value [2, 6] was 5.04%. For the same molecule, the AUCinf/Dose [2, 6] was 50 ng·h/mL/mg/kg, the AUClast/Dose [2, 6] was 47.5 (h*ng/mL)/(mg/kg) and the Cmax/Dose [2, 6] was 6.03 (ng/mL)/(mg/kg). For the same molecule, the “% extrapolated” value [2, 7] was 1.77%, the AUCinf/Dose [2, 7] was 82.4 ng·h/mL/mg/kg and the AUClast/Dose [2, 7] was 80.9 (h*ng/mL)/(mg/kg). For the same molecule, the Cmax/Dose [2, 7] was 8.36 (ng/mL)/(mg/kg), the “% extrapolated” value [2, 8] was 7.41% and the AUCinf/Dose [2, 8] was 60.8 ng·h/mL/mg/kg. The AUClast/Dose [2, 8] was 56.3 (h*ng/mL)/(mg/kg), the Cmax/Dose [2, 8] was 4.01 (ng/mL)/(mg/kg) and the “% extrapolated” value [2, 9] was 12.7%. For the same molecule, the AUCinf/Dose [2, 9] was 87 ng·h/mL/mg/kg, the AUClast/Dose [2, 9] was 76 (h*ng/mL)/(mg/kg) and the Cmax/Dose [2, 9] was 5.65 (ng/mL)/(mg/kg). It also gave a bioavailability ([2]; female, Swiss Albino, mouse, plasma, oral, multiple daily dose administration, based on i.v. exposure, read-out: oral bioavailability) of 18 to 41%, an AUC(0-inf) [2, 10] of 408 ng·h/mL and a Cmax [2, 10] of 25.8 ng/mL. It also gave an AUC(0-t) [2, 10] of 374 ng·h/mL, a bioavailability ([2]; female, Swiss Albino, mouse, plasma, po, 5 mg/kg, day 5, daily oral 5 mg/kg, Formulation 1, female mice, based on iv exposure, read-out: F (%)) of 29% and a half-life at 5 days ([2]; female, Swiss Albino, mouse, plasma, po, 5 mg/kg, day 5, daily oral 5 mg/kg, Formulation 1, female mice, read-out: Apparent T1/2 (converted)) of 7.8 h. For the same molecule, the AUC(0-inf) [2, 11] was 579 ng·h/mL, the Cmax [2, 11] was 47.4 ng/mL and the AUC(0-t) [2, 11] was 570 ng·h/mL. It also gave a bioavailability ([2]; female, Swiss Albino, mouse, plasma, po, 5 mg/kg, day 5, daily oral 5 mg/kg, Formulation 2, female mice, based on iv exposure, read-out: F (%)) of 41%, a half-life ([2]; female, Swiss Albino, mouse, plasma, po, 5 mg/kg, day 5, daily oral 5 mg/kg, Formulation 2, female mice, read-out: Apparent T1/2 (converted)) of 4.02 h and an AUC(0-inf) [2, 12] of 375 ng·h/mL. For the same molecule, the Cmax [2, 12] was 45.2 ng/mL, the AUC(0-t) [2, 12] was 356 ng·h/mL and the bioavailability ([2]; female, Swiss Albino, mouse, plasma, po, 7.5 mg/kg, day 5, daily oral 7.5 mg/kg, Formulation 1, female mice, based on iv exposure, read-out: F (%)) was 18%. The half-life ([2]; female, Swiss Albino, mouse, plasma, po, 7.5 mg/kg, day 5, daily oral 7.5 mg/kg, Formulation 1, female mice, read-out: Apparent T1/2 (converted)) was 5.31 h, the AUC(0-inf) [2, 13] was 618 ng·h/mL and the Cmax [2, 13] was 62.7 ng/mL. The AUC(0-t) [2, 13] was 607 ng·h/mL, the bioavailability ([2]; female, Swiss Albino, mouse, plasma, po, 7.5 mg/kg, day 5, daily oral 7.5 mg/kg, Formulation 2, female mice, based on iv exposure, read-out: F (%)) was 29% and the half-life ([2]; female, Swiss Albino, mouse, plasma, po, 7.5 mg/kg, day 5, daily oral 7.5 mg/kg, Formulation 2, female mice, read-out: Apparent T1/2 (converted)) was 3.79 h. It also gave an AUC(0-inf) [2, 14] of 608 ng·h/mL, a Cmax [2, 14] of 40.1 ng/mL and an AUC(0-t) [2, 14] of 563 ng·h/mL. It also gave a bioavailability ([2]; female, Swiss Albino, mouse, plasma, po, 10 mg/kg, day 5, daily oral 10 mg/kg, Formulation 1, female mice, based on iv exposure, read-out: F (%)) of 22%, a half-life ([2]; female, Swiss Albino, mouse, plasma, po, 10 mg/kg, day 5, daily oral 10 mg/kg, Formulation 1, female mice, read-out: Apparent T1/2 (converted)) of 5.81 h and an AUC(0-inf) [2, 15] of 870 ng·h/mL. For the same molecule, the Cmax [2, 15] was 56.5 ng/mL, the AUC(0-t) [2, 15] was 760 ng·h/mL and the bioavailability ([2]; female, Swiss Albino, mouse, plasma, po, 10 mg/kg, day 5, daily oral 10 mg/kg, Formulation 2, female mice, based on iv exposure, read-out: F (%)) was 31%. For the same molecule, the half-life ([2]; female, Swiss Albino, mouse, plasma, po, 10 mg/kg, day 5, daily oral 10 mg/kg, Formulation 2, female mice, read-out: Apparent T1/2 (converted)) was 7.66 h, the Tmax ([2]; female, Swiss Albino, mouse, plasma, day 5 of daily oral administration, read-out: median Tmax) was 2 to 4 h and the “time TTK completely occupied after last dose” value ([3]; IV twice-weekly, MTD dose, MDA-MB-231 tumors) was “at least 72 h”. For the same molecule, the “time tumor-derived TTK fully drug-occupied after last administration” value ([3]; IV weekly MTD dosing, repeat experiment) was “up to 6 days”.
